Our source for the TGI and GI50 values is PubChem BioAssay (NCI).

Among the test systems are MALME-3M melanoma; EKVX NSCLC; U251 CNS; UO-31 renal; SW-620 colon; RXF 393 renal; OVCAR-5 ovarian; MDA-MB-231 breast; MCF7 breast.
Common to all, as to assay: inhibition of tumour cell growth, NCI panel, 48 h

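Results reflect a 48-hour exposure of cells in 96-well plates to compound at five concentrations. GI50 = concentration required for 50% inhibition of growth. TGI is the concentration that stops growth completely.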

Regarding `CC1=C(C(=O)Nc2ccccc2)C(c2cccc3ccccc23)C(C(=O)Nc2ccccc2)=C(C)N1`, the TGI was 37.4 µM in the experiment with MALME-3M melanoma; 37.6 µM in the experiment on EKVX NSCLC; 31.3 µM with U251 CNS; 52.8 µM in the experiment with UO-31 renal; 55.1 µM in the experiment with SW-620 colon; 29.2 µM with RXF 393 renal. In addition, in the experiment on OVCAR-5 ovarian, the TGI came out at 44.6 µM.
Consider `C[CH2][Ge]([CH2]C)([CH2]C)[O]C(=O)C(OC(C)=O)c1ccccc1` (stereo not given), for which the GI50 in the experiment on MALME-3M melanoma is over 100 µM; in the experiment on EKVX NSCLC, 38.3 µM; in the experiment on U251 CNS it was over 100 µM; with UO-31 renal, over 100 µM; in the experiment on SW-620 colon, over 100 µM; with OVCAR-5 ovarian it was over 100 µM. Moreover, the TGI with MALME-3M melanoma, with EKVX NSCLC, in the experiment on U251 CNS, with UO-31 renal, in the experiment with SW-620 colon and with OVCAR-5 ovarian was over 100 µM throughout.
Regarding `COc1ccc2c3c([nH]c2c1[N+](=O)[O-])C(C)N(Cc1ccccc1)CC3` (stereo not given), the TGI with EKVX NSCLC was over 100 µM; with U251 CNS, 8.73 µM; with UO-31 renal it was over 100 µM; in the experiment with SW-620 colon, over 100 µM; in the experiment on RXF 393 renal it was 17.9 µM; with OVCAR-5 ovarian, over 100 µM.
In the case of `O=C1C=CC=C/C1=C1/SC(c2ccccc2)=C(O)N1c1ccccc1`, the TGI with MALME-3M melanoma, with EKVX NSCLC, in the experiment with U251 CNS, in the experiment with UO-31 renal, with SW-620 colon and in the experiment with RXF 393 renal was over 100 µM throughout. Also, the TGI in the experiment with OVCAR-5 ovarian is over 100 µM.
`Cc1cccc(C2SCc3nc4ccccc4n32)c1` (stereo not given): the TGI in the experiment on MALME-3M melanoma was 49.6 µM; in the experiment on EKVX NSCLC it was 68.4 µM; with U251 CNS, 47.2 µM; in the experiment on SW-620 colon, over 100 µM; with RXF 393 renal, 43.9 µM; with OVCAR-5 ovarian it was 65.8 µM.
Take `CCOC(=O)/C(=C/c1ccc(C(=O)OC)cc1)N(CC)CC`: the TGI in the experiment with MALME-3M melanoma, in the experiment on EKVX NSCLC, in the experiment on U251 CNS, in the experiment on UO-31 renal, in the experiment on SW-620 colon and in the experiment with OVCAR-5 ovarian was over 100 µM in each case.
For the compound `CC1/C(=N\O)CC(c2ccccc2)N(C)C1c1ccccc1` (stereo not given), the TGI in the experiment with MALME-3M melanoma, in the experiment on EKVX NSCLC, in the experiment with U251 CNS, in the experiment on UO-31 renal, in the experiment with SW-620 colon and with RXF 393 renal was over 100 µM in each case. The same compound registered a TGI in the experiment with OVCAR-5 ovarian of over 100 µM.
On to `ClC/C=C/COC1CCCCO1` (stereo not given), for which the TGI in the experiment on MALME-3M melanoma, in the experiment with EKVX NSCLC, in the experiment on U251 CNS, with UO-31 renal, in the experiment with SW-620 colon and with RXF 393 renal was over 100 µM each time. The TGI in the experiment with OVCAR-5 ovarian is over 100 µM.
Consider `CC1=C(/C=C/C(C)=C/C2CC(N(C)C)=CC(=O)O2)C(C)(C)CCC1` (stereo not given), for which the TGI is 28.6 µM with MALME-3M melanoma; 27.9 µM in the experiment with EKVX NSCLC; 28.7 µM in the experiment on U251 CNS; 22.7 µM with UO-31 renal; 31.1 µM with SW-620 colon; 31.1 µM in the experiment on RXF 393 renal. Moreover, the TGI in the experiment with OVCAR-5 ovarian is 24.1 µM.
Turning to `NC(=O)c1cc([N+](=O)[O-])c(Cl)c([N+](=O)[O-])c1Cl`, the GI50 was 1.74 µM in the experiment on MALME-3M melanoma; 2.08 µM in the experiment on EKVX NSCLC; 1.2 µM in the experiment on U251 CNS; 1.79 µM in the experiment with MDA-MB-231 breast; 0.893 µM with MCF7 breast; 1.58 µM in the experiment on UO-31 renal. Also, the values for the GI50 in the experiment on SW-620 colon, with RXF 393 renal and in the experiment with OVCAR-5 ovarian were 0.291 µM, 1.15 µM and 2.3 µM, respectively. Besides, the TGI in the experiment on MALME-3M melanoma turned out to be 4.52 µM; with EKVX NSCLC, 4.85 µM; with U251 CNS, 2.49 µM; in the experiment with MDA-MB-231 breast, 3.39 µM; in the experiment with MCF7 breast it was 2.64 µM; with UO-31 renal it was 3.48 µM. Besides, the figures for the TGI with SW-620 colon, in the experiment with RXF 393 renal and in the experiment on OVCAR-5 ovarian were 1.07 µM, 2.39 µM and 4.59 µM, respectively.
For `O=C1N2Cc3c4ccc5c3CN3C(=O)N6Cc7c(ccc(c7CN1C6(c1ccccc1)C23c1ccccc1)OCCOCCNCCOCCO4)OCCOCCNCCOCCO5` (stereo not given), the TGI in the experiment with MALME-3M melanoma was 59.6 µM; in the experiment with EKVX NSCLC, over 100 µM; in the experiment with U251 CNS it was over 100 µM; in the experiment with UO-31 renal it was over 100 µM; in the experiment on SW-620 colon, 50.8 µM; with RXF 393 renal it was over 100 µM. The compound also yielded a TGI with OVCAR-5 ovarian of over 100 µM.
Consider `Cc1cccc(C)c1NC(=O)C1=NC(=S)NC(c2ccccc2)C1c1nc2ccccc2s1` (stereo not given), for which the TGI in the experiment on MALME-3M melanoma, with EKVX NSCLC, with U251 CNS, with UO-31 renal, in the experiment with SW-620 colon and with RXF 393 renal was over 100 µM throughout.
On to `COC(=O)C1Cc2c(n(C)c3ccccc23)C(CCC(=O)O)N1Cc1ccccc1` (stereo not given), for which the TGI in the experiment with MALME-3M melanoma was over 100 µM; in the experiment on EKVX NSCLC it was over 100 µM; with U251 CNS, over 100 µM; in the experiment on UO-31 renal it was 51.4 µM; in the experiment with SW-620 colon, over 100 µM; with RXF 393 renal, 89.7 µM. In the experiment with OVCAR-5 ovarian, the TGI is over 100 µM.
As to `O=C1CC(c2ccccc2)=Nc2ccccc2N1`, the TGI in the experiment with MALME-3M melanoma was over 100 µM; in the experiment on EKVX NSCLC, over 100 µM; in the experiment on U251 CNS it was over 100 µM; in the experiment with UO-31 renal it was over 100 µM; with SW-620 colon, 51.8 µM; with RXF 393 renal, over 100 µM. This compound also yielded a TGI with OVCAR-5 ovarian of over 100 µM.
As for `CC(=O)Nc1c(Nc2ccccc2)[nH]c(C)nc1=S`, the TGI in the experiment with MALME-3M melanoma, in the experiment on EKVX NSCLC, with UO-31 renal, in the experiment with SW-620 colon, in the experiment on RXF 393 renal and in the experiment on OVCAR-5 ovarian was over 100 µM throughout.
In the case of `c1ccc2c3c([nH]c2c1)[C@H]1C2CCCCN2CN1CC3` (stereo not given in full), the TGI in the experiment on MALME-3M melanoma, with EKVX NSCLC, in the experiment on U251 CNS, in the experiment on UO-31 renal, in the experiment on SW-620 colon and in the experiment on RXF 393 renal was over 100 µM throughout. The TGI in the experiment on OVCAR-5 ovarian was over 100 µM.
With `O=c1[nH]c2ccccc2nc1/C=C(\O)c1ccccc1O`, the TGI with MALME-3M melanoma, in the experiment on EKVX NSCLC, with U251 CNS, in the experiment on UO-31 renal, with SW-620 colon and in the experiment with RXF 393 renal was over 100 µM throughout. In the experiment with OVCAR-5 ovarian, this compound showed a TGI of over 100 µM.
